Measured values from publication PMC6437697 (Journal of Medicinal Chemistry, 2019).

How the values were obtained:
Experiment in all cases: KINOMEscan
Format in all cases: binding
Settings in all cases: read-out: % control activity remaining
[1] = target: T1, HIPK1 (Homo sapiens, UniProt Q86Z02)
T1 construct: purchased Eurofins DiscoverX KINOMEscan

[2] = target: T2, ITK (Homo sapiens, UniProt Q08881)
T2 construct: purchased Eurofins DiscoverX KINOMEscan
T2 sequence (Q08881 1-620): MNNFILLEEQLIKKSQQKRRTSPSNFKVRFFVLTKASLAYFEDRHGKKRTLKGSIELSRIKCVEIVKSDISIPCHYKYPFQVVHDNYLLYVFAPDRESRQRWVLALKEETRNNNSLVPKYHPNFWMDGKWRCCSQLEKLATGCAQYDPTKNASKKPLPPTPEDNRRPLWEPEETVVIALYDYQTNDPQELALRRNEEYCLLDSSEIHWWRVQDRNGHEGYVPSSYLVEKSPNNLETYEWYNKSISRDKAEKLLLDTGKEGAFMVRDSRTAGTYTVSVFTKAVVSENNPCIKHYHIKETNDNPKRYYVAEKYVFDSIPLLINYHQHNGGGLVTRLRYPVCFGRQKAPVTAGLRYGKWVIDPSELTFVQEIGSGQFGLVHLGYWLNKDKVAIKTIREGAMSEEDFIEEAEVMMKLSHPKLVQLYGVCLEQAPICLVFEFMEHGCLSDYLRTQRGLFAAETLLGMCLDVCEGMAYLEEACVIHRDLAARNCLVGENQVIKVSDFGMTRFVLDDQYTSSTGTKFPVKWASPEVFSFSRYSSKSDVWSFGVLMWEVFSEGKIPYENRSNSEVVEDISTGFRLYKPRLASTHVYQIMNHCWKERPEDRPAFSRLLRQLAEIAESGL

[3] = target: T3, MST1 (Homo sapiens, UniProt Q13043)
T3 construct: purchased Eurofins DiscoverX KINOMEscan
T3 sequence (Q13043 1-487): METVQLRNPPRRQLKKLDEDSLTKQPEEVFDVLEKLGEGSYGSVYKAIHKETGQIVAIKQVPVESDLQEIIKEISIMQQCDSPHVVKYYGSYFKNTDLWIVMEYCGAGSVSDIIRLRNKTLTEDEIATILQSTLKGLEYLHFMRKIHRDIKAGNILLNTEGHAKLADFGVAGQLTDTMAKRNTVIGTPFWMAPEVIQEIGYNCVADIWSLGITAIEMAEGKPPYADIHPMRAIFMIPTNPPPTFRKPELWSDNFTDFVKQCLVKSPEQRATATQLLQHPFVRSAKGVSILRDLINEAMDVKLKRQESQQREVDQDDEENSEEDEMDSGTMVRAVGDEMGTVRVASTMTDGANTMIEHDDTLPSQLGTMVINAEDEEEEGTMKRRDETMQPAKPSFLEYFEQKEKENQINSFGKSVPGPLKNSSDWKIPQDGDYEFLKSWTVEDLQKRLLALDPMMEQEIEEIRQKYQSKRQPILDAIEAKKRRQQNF

[4] = target: T4, PIK3CA(H1047L) (Homo sapiens, UniProt P42336, H1047L)
T4 construct: purchased Eurofins DiscoverX KINOMEscan

[5] = target: T5, RIPK1 (Homo sapiens, UniProt Q13546)
T5 construct: purchased Eurofins DiscoverX KINOMEscan
T5 sequence (Q13546 1-671): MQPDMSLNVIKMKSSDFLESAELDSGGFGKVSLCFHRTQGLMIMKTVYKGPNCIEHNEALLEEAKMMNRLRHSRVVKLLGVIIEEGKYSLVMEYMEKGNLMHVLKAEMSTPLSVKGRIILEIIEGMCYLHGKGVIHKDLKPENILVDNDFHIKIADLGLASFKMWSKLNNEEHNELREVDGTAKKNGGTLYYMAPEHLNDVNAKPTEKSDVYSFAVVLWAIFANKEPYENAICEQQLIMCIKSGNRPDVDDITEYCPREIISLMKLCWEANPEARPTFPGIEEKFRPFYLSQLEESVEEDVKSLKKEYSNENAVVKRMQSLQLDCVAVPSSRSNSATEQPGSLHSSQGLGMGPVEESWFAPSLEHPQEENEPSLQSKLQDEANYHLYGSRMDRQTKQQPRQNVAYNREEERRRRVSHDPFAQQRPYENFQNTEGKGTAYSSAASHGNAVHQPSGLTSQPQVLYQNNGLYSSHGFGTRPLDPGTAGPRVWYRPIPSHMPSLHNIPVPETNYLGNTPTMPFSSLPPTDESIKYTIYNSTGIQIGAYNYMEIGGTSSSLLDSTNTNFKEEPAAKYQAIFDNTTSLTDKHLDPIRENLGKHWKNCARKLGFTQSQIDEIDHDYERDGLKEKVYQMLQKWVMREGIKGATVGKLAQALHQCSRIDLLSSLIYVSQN

[6] = target: T6, ULK1 (Homo sapiens, UniProt O75385)
T6 construct: purchased Eurofins DiscoverX KINOMEscan
T6 sequence (O75385 1-1050): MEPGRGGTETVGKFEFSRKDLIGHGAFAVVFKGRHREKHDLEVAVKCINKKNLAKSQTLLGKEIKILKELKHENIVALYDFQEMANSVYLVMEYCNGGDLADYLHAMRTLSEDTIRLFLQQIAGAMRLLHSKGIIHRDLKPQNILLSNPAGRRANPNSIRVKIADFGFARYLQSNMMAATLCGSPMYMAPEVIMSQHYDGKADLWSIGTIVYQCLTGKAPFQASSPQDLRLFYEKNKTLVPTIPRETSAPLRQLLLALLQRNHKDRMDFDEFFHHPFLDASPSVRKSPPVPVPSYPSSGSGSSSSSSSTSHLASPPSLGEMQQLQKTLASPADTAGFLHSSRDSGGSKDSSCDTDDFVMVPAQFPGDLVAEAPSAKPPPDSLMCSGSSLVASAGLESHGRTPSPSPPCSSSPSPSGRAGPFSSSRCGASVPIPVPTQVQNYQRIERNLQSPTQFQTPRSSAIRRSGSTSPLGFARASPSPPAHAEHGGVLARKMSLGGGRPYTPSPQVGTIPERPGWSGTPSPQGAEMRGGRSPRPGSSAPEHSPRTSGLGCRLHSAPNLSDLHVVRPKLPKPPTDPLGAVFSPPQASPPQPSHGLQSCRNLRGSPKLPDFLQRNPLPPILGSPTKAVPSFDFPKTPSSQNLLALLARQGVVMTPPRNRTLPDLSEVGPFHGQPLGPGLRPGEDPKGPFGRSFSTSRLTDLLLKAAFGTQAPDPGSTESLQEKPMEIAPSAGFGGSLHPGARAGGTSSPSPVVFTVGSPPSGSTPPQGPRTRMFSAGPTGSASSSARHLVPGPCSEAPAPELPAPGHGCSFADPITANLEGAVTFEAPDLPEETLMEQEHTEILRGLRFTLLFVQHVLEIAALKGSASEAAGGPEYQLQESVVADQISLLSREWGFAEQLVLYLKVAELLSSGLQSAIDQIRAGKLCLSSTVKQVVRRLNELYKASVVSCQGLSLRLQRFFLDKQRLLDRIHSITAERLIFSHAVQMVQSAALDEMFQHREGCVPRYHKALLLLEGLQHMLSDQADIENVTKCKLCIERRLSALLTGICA

T1 sequence (Q86Z02 whole entry): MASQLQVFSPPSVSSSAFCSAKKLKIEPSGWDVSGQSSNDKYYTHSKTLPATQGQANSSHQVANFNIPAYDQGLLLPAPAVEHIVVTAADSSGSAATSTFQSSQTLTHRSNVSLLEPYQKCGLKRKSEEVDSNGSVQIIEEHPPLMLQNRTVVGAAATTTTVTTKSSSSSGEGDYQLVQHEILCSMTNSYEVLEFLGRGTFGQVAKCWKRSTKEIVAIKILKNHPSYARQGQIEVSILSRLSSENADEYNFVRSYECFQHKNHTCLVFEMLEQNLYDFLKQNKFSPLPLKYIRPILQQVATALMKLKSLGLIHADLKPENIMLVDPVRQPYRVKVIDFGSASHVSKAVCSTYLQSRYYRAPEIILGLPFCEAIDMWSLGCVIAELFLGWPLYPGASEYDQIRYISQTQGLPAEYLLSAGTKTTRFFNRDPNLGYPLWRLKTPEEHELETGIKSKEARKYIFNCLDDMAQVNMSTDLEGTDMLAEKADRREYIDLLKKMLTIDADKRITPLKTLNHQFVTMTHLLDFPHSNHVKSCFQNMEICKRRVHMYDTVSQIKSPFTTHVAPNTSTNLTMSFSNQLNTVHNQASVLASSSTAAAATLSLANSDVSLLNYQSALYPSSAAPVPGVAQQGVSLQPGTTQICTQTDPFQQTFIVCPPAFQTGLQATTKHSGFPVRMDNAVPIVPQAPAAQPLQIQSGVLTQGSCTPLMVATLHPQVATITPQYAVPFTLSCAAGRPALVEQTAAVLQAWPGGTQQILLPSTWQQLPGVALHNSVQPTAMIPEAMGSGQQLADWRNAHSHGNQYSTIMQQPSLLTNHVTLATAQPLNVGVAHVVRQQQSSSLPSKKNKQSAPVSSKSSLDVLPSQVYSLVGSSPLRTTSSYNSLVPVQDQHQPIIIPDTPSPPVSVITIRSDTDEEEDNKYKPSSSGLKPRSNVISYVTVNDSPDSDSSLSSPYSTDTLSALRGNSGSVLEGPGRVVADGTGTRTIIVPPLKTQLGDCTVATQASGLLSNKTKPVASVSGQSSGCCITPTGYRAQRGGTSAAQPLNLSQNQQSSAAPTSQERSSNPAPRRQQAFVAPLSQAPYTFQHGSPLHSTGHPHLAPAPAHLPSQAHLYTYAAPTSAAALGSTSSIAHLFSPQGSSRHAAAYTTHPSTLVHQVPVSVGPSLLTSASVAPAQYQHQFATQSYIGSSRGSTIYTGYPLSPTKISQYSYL
T4 sequence (P42336 whole entry H1047L): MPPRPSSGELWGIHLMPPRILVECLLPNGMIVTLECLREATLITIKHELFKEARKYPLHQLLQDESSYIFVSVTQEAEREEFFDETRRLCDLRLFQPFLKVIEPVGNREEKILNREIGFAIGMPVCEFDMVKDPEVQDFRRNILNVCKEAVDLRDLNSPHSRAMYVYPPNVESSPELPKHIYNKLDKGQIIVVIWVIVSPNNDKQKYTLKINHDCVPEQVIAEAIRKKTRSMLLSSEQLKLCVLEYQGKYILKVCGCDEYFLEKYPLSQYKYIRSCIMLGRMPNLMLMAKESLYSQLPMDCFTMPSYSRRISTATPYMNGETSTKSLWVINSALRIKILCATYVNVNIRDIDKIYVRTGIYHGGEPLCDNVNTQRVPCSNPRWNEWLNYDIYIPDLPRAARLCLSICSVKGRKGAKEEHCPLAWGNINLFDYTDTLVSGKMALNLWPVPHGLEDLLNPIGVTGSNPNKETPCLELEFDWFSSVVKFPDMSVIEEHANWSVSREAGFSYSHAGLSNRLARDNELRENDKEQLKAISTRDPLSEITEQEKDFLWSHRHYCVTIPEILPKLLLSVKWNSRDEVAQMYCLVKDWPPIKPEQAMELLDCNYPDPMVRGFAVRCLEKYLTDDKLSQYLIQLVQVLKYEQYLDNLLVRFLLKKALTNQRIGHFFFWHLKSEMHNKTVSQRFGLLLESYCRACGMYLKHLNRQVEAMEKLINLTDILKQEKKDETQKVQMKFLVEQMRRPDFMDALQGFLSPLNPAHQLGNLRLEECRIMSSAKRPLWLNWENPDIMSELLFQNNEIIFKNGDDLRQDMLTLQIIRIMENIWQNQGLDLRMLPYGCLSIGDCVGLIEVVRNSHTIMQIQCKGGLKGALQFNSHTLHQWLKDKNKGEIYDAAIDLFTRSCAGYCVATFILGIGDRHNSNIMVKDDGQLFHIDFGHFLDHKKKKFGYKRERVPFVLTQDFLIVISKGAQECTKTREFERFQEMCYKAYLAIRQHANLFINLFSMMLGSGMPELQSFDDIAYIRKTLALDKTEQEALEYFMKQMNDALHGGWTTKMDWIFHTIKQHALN

| Structure (SMILES) | remaining binding at 1 µM [1] [%] | remaining binding at 1 µM [2] [%] | remaining binding at 1 µM [3] [%] | remaining binding at 1 µM [4] [%] | remaining binding at 1 µM [5] [%] | remaining binding at 1 µM [6] [%] |
| --- | --- | --- | --- | --- | --- | --- |
| Clc1cc(NCC2CC2)c2ncc(-c3ccc4[nH]ncc4c3)n2n1 [compound 2, 6-Chloro-N-(cyclopropylmethyl)-3-(1H-indazol-5-yl)imidazo[1,2-b]pyridazin-8-amine] | 42 | 92 | 100 | 95 | 91 | 78 |
| O=C(CN1CCOCC1)N[C@H]1CC[C@H](Nc2cc(Cl)nn3c(-c4ccc5[nH]ncc5c4)cnc23)CC1 [compound 26] | 0.45 | 84 | 100 | 98 | 74 | 97 |
| CN1CCC(CNc2cc(Cl)nn3c(-c4cc5nc(Nc6ccccc6)[nH]c5cc4F)cnc23)CC1 [compound 31, 6-Chloro-3-(6-fluoro-2-(phenylamino)-1H-benzo[d]imidazol-5-yl)-N-((1-methylpiperidin-4-yl)methyl)imidazo[1,2-b]pyridazin-8-amine] | 74 | 91 | 95 | 70 | 94 | 79 |
